Source: ChEMBL document CHEMBL1201862, “PubChem BioAssay data set” (2004)
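Values below derive from 48-hour exposures of cells grown in 96-well plates, with endpoints linearly interpolated between the two concentrations bracketing the appropriate inhibition level. GI50 marks 50% less growth.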 Active and inactive are the calls of the source. Rule as the data show it: active = GI50 up to about 1.1 µM and inactive = higher.

Legend:
Test in all cases: growth of human tumour cells (NCI), 48 h
NCI-H522 = tested on: NCI-H522
COLO 205 = tested on: COLO 205
HCT-116 = tested on: HCT-116
M14 = tested on: M14
786-0 = tested on: 786-0
SK-OV-3 = tested on: SK-OV-3
SF-295 = tested on: SF-295
SF-539 = tested on: SF-539
MOLT-4 = tested on: MOLT-4
HL-60 = tested on: HL-60
RPMI-8226 = tested on: RPMI-8226
NCI-H23 = tested on: NCI-H23
SK-MEL-2 = tested on: SK-MEL-2
KM12 = tested on: KM12
ACHN = tested on: ACHN
CAKI-1 = tested on: CAKI-1
HOP-92 = tested on: HOP-92

Measured: GI50

O=C1CCC2(c3ccc(F)cc3)Nc3cc(Cl)ccc3N12 (configuration not stated)
inactive: NCI-H522 48.6 µM | COLO 205 > 100 µM | HCT-116 67.8 µM | M14 > 100 µM | 786-0 > 100 µM | SK-OV-3 > 100 µM | SF-295 60.5 µM | SF-539 > 100 µM | MOLT-4 37.2 µM | HL-60 63.4 µM | RPMI-8226 76.7 µM | NCI-H23 38.3 µM | SK-MEL-2 > 100 µM | KM12 > 100 µM | ACHN 54.6 µM

O=C(CC1(O)C(=O)Nc2c(Cl)ccc(Cl)c21)c1ccc(Cl)cc1Cl (configuration not stated)
inactive: COLO 205 17.6 µM | HCT-116 19.1 µM | M14 13.2 µM | 786-0 14.2 µM | SK-OV-3 21.9 µM | SF-295 23.2 µM | SF-539 19.2 µM | RPMI-8226 19.5 µM | NCI-H23 19.9 µM | CAKI-1 20.3 µM | SK-MEL-2 21.3 µM | KM12 16.5 µM | HOP-92 21 µM | ACHN 16.6 µM

O=C(/N=C(/Nc1ccccc1)SCCS/C(=N\C(=O)c1ccccc1)Nc1ccccc1)c1ccccc1
inactive: NCI-H522 22.2 µM | COLO 205 > 100 µM | HCT-116 46.8 µM | M14 60.5 µM | 786-0 61.4 µM | SF-295 58.9 µM | SF-539 68.2 µM | MOLT-4 38.7 µM | RPMI-8226 48.2 µM | NCI-H23 59.8 µM | CAKI-1 33.7 µM | SK-MEL-2 > 100 µM | KM12 62.5 µM | HOP-92 16.8 µM | ACHN 55.7 µM

O=C(c1ccccc1)[C@H]1Nc2ccc(Cl)cc2[C@H]2c3ccccc3O[C@H]21
inactive: NCI-H522 17.8 µM | COLO 205 18.7 µM | HCT-116 17.2 µM | M14 16.3 µM | 786-0 16.6 µM | SF-295 15.5 µM | SF-539 15 µM | MOLT-4 4.82 µM | RPMI-8226 27 µM | NCI-H23 14.2 µM | CAKI-1 14 µM | SK-MEL-2 13.5 µM | KM12 16.1 µM | ACHN 15.2 µM

CC(=O)O[C@H]1CC2C=CC3C(CCC31)O2 (some centres not stated)
inactive: COLO 205 > 100 µM | M14 > 100 µM | 786-0 > 100 µM | SK-OV-3 > 100 µM | MOLT-4 > 100 µM | HL-60 80 µM | NCI-H23 > 100 µM | CAKI-1 > 100 µM | ACHN > 100 µM
